Experimental data published in patent US10906889B2, “Polycyclic inhibitors of cyclin-dependent kinase 7 (CDK7)” (Dana-Farber Cancer Institute, Inc., priority 2013, dated 2021).
Read-outs that look alike come from different tables or passages of the source.

Experiments:
SAOS = experiment: Cell proliferation (CellTiter-Glo, 72 hour), SAOS; format: cell-based; conditions: osteosarcoma cell line, read-out: SAOS inhibition of proliferation (IC50)
CDK5/p25 = CDK5/p25 (Homo sapiens, UniProt Q00535); experiment: Z'-Lyte kinase assay (Life Technologies), CDK5/p25
CDK5/p25, sequence (Q00535 whole entry): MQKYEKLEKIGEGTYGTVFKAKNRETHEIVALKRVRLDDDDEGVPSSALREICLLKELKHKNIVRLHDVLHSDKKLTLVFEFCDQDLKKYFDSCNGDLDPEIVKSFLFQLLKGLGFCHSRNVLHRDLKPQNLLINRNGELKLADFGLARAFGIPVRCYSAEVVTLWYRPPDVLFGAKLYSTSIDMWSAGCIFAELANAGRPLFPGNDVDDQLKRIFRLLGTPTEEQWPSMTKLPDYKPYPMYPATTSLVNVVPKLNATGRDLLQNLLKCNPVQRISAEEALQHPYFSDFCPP
CDK5/p25, sequence (Q15078 99-307 partner limits assumed): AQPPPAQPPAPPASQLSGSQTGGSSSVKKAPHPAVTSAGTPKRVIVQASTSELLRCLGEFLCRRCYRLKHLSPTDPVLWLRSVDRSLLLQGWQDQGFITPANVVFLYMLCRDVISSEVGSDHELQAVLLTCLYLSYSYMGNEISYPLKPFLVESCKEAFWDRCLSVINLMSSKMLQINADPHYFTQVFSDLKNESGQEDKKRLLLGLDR

MLK3 = molecular target: T1, MLK3 (Homo sapiens, UniProt Q16584); experiment: LanthaScreen Eu kinase assay (Life Technologies), MLK3; format: binding
T1 construct: purchased Life Technologies (assay service)
T1 sequence (Q16584 whole entry): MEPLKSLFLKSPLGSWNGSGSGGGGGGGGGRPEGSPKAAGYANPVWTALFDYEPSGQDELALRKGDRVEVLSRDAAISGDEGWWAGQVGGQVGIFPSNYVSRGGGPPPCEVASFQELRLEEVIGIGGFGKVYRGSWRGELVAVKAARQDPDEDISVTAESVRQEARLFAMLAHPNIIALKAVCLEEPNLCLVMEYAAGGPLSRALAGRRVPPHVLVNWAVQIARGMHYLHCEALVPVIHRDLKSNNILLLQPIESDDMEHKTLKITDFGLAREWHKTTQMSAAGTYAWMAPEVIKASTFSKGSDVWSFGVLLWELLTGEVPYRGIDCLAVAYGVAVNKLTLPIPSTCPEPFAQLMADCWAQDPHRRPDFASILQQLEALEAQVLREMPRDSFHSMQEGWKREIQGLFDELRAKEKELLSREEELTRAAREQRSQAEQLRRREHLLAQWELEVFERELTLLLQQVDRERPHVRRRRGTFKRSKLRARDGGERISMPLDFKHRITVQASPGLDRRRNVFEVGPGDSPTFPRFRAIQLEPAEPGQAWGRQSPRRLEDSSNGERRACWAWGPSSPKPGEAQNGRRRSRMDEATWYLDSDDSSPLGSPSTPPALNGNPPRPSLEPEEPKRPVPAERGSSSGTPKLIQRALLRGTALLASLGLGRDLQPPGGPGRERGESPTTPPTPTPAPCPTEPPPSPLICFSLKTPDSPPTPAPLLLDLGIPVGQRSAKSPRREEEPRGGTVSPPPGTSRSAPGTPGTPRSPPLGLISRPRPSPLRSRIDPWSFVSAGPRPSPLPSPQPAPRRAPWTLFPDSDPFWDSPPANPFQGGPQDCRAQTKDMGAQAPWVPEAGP

MNNG-HOS Cl #5 = experiment: Cell proliferation (CellTiter-Glo, 72 hour), MNNG-HOS Cl #5; format: cell-based; conditions: osteosarcoma cell line, read-out: MNNG-HOS Cl#5 inhibition of proliferation (IC50)
CDK9/cyclin T1 = CDK9/cyclin T1 (Homo sapiens, UniProt P50750); experiment: Adapta kinase assay (Life Technologies), CDK9/cyclin T1
CDK9/cyclin T1, sequence (P50750 whole entry): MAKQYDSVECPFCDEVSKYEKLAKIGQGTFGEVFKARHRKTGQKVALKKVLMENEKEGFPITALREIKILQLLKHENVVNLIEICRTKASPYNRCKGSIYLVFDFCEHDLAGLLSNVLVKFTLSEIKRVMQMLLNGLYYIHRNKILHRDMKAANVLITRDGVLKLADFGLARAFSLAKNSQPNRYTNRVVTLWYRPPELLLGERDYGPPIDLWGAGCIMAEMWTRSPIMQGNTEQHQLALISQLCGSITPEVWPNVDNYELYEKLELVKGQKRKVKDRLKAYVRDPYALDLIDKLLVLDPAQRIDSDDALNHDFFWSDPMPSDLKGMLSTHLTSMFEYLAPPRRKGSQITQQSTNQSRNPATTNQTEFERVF
CDK9/cyclin T1, sequence (O60563 whole entry partner): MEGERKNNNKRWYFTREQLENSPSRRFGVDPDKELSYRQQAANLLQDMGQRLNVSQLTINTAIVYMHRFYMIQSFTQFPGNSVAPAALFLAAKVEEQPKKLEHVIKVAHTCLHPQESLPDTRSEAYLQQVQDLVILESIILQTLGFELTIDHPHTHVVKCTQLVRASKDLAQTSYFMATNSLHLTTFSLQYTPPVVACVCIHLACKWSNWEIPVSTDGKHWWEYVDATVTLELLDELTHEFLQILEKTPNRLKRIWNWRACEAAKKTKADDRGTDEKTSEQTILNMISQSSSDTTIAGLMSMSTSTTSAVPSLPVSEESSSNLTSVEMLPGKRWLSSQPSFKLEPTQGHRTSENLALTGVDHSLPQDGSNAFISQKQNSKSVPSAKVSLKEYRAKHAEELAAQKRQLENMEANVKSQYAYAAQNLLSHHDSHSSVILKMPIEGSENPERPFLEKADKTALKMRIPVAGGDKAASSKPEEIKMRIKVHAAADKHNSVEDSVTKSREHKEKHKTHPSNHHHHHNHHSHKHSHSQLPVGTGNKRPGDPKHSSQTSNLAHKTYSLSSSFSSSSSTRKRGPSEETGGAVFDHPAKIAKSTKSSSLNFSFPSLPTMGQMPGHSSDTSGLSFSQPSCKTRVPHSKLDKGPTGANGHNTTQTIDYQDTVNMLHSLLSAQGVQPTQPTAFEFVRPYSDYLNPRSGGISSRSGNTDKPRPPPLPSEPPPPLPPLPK
Method: (§1) Compounds of the invention were assayed for activity against a variety of different kinases at Life Technologies™ (Grand Island, N.Y.) using their commercially available Adapta® (for CDK7, CDK9/cyclin T1, and IRAK1 kinases), Z′-Lyte® (for CDK1, CDK2, CDK5/p25, CDK5/p35, JNK1 and JNK2 kinases), and LanthaScreen Eu® (for CDK8, CDK9/cyclin K and MLK3) kinase assay services. Test compounds were tested at 100 nM and 1 μM final concentrations in 1% DMSO against all kinases except CDK7. For CDK7, test compounds were tested at concentrations ranging from 10 μM to 0.514 nM in a series of 3-fold serial dilutions. […] The co-factors used for each kinase in the assays were as follows: CDK1: cyclin B; CDK2: cyclin A; CDK5: p25 or p35 as indicated; CDK7: cyclin H and MNAT1; CDK8: cyclin C; CDK9: cyclin K or cyclin T1 as indicated; IRAK1: Histone H3 (1-20) peptide; JNK1: none required; JNK2: none required; MLK3: none required.

CDK7 = molecular target: T2, CDK7 (Homo sapiens, UniProt P50613); experiment: Adapta kinase assay (Life Technologies), CDK7; format: biochemical
T2 construct: purchased Life Technologies (assay service)
T2 sequence (P50613 whole entry): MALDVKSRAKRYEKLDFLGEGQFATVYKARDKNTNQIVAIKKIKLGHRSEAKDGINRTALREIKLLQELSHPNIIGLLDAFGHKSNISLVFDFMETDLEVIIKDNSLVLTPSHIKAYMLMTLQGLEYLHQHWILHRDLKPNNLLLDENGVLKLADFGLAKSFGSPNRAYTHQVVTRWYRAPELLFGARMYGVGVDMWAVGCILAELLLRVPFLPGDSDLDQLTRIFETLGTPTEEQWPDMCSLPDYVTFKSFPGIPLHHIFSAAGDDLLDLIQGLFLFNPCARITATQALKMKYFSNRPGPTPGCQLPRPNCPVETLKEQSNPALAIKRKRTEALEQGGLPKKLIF
T2 sequence (P51946 whole entry partner): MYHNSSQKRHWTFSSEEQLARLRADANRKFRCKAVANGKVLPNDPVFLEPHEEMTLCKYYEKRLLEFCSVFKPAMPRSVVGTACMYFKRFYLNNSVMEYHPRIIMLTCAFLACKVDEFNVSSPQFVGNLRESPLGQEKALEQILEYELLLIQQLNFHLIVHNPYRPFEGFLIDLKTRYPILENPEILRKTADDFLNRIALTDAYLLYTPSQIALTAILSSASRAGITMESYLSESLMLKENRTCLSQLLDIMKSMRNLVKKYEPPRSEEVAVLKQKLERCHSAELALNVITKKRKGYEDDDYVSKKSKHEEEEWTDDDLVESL
T2 sequence (P51948 whole entry partner): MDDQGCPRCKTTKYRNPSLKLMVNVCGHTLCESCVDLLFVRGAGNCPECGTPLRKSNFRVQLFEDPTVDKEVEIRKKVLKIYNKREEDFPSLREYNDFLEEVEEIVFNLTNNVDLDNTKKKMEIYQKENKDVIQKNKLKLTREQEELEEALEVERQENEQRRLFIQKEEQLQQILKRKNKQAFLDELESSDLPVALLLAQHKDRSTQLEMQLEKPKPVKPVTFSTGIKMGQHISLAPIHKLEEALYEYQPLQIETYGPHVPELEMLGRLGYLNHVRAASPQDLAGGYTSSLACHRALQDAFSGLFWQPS

Hs863T = experiment: Cell proliferation (CellTiter-Glo, 72 hour), Hs863T; format: cell-based; conditions: Ewing's sarcoma cell line, read-out: Hs863T inhibition of proliferation (IC50)
MCF7 = experiment: Cell proliferation (CellTiter-Glo, 72 hour), MCF7; format: cell-based; conditions: Homo sapiens, breast cancer cell line, read-out: MCF7 inhibition of proliferation (IC50)
IRAK1 = molecular target: T3, IRAK1 (Homo sapiens, UniProt P51617); experiment: Adapta kinase assay (Life Technologies), IRAK1; format: biochemical
T3 construct: purchased Life Technologies (assay service)

CDK1 = molecular target: T4, CDK1 (Homo sapiens, UniProt P06493); experiment: Z'-Lyte kinase assay (Life Technologies), CDK1; format: biochemical; conditions: co-factor cyclin B
T4 construct: purchased Life Technologies (assay service)
T4 sequence (P06493 whole entry): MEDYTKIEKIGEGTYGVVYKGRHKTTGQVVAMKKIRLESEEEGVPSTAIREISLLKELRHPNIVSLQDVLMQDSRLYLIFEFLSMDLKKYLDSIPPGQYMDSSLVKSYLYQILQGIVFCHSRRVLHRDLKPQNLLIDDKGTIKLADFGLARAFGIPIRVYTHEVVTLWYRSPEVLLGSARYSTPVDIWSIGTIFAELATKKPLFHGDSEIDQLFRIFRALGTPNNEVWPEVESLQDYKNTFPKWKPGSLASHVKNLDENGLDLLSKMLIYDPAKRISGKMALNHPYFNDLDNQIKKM
T4 sequence (P14635 whole entry partner): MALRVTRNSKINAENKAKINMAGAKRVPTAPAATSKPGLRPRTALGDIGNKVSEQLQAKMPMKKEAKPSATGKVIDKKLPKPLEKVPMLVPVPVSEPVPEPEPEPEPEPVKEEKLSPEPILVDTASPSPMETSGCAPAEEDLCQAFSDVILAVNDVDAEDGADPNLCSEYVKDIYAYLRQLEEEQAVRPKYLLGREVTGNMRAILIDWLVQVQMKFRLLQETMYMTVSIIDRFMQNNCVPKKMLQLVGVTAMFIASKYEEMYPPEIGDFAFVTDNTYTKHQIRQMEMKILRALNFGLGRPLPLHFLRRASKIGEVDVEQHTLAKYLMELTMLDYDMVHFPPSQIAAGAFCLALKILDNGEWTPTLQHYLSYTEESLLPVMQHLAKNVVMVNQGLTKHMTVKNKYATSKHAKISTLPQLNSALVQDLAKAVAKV

Jurkat cells = experiment: Cell proliferation (CellTiter-Glo, 72 hour), Jurkat; format: cell-based; conditions: Homo sapiens, blood cancer cell line
MCF10A = experiment: Cell proliferation (CellTiter-Glo, 72 hour), MCF10A; format: cell-based; conditions: Homo sapiens, MCF-10A, breast cancer cell lines table, read-out: MCF10A inhibition of proliferation (IC50)
JNK1 = molecular target: T5, JNK1 (Homo sapiens, UniProt P45983); experiment: Z'-Lyte kinase assay (Life Technologies), JNK1; format: biochemical
T5 construct: purchased Life Technologies (assay service)

T47D = experiment: Cell proliferation (CellTiter-Glo, 72 hour), T47D; format: cell-based; conditions: Homo sapiens, breast cancer cell line, read-out: T47D inhibition of proliferation (IC50)
MV4-11 = experiment: Cell proliferation (CellTiter-Glo, 72 hour), MV4-11; format: cell-based; conditions: Homo sapiens, blood cancer cell line, read-out: MV4-11 inhibition of proliferation (IC50)
CDK8 = molecular target: T6, CDK8 (Homo sapiens, UniProt P49336); experiment: LanthaScreen Eu kinase assay (Life Technologies), CDK8; format: binding; conditions: co-factor cyclin C
T6 construct: purchased Life Technologies (assay service)

A673 = experiment: Cell proliferation (CellTiter-Glo, 72 hour), A673; format: cell-based; conditions: Homo sapiens, Ewing's sarcoma cell line, read-out: A673 inhibition of proliferation (IC50)
RD-ES = experiment: Cell proliferation (CellTiter-Glo, 72 hour), RD-ES; format: cell-based; conditions: Ewing's sarcoma cell line, read-out: RD-ES inhibition of proliferation (IC50)
CDK5/p35 = CDK5/p35 (Homo sapiens, UniProt Q00535); experiment: Z'-Lyte kinase assay (Life Technologies), CDK5/p35
Method: as §1

RS4-11 = experiment: Cell proliferation (CellTiter-Glo, 72 hour), RS4-11; format: cell-based; conditions: Homo sapiens, blood cancer cell line, read-out: RS4-11 inhibition of proliferation (IC50)
THP-1 = experiment: Cell proliferation (CellTiter-Glo, 72 hour), THP-1; format: cell-based; conditions: Homo sapiens, blood cancer cell line, read-out: THP-1 inhibition of proliferation (IC50)
CDK2 = molecular target: T7, CDK2 (Homo sapiens, UniProt P24941); experiment: Z'-Lyte kinase assay (Life Technologies), CDK2; format: biochemical; conditions: co-factor cyclin A
T7 construct: purchased Life Technologies (assay service)

HL60 = experiment: Cell proliferation (CellTiter-Glo, 72 hour), HL60; format: cell-based; conditions: Homo sapiens, HL-60, blood cancer cell line, read-out: HL60 inhibition of proliferation (IC50)
143B = experiment: Cell proliferation (CellTiter-Glo, 72 hour), 143B; format: cell-based; conditions: Homo sapiens, osteosarcoma cell line, read-out: 143B inhibition of proliferation (IC50)
Hs822T = experiment: Cell proliferation (CellTiter-Glo, 72 hour), Hs822T; format: cell-based; conditions: Ewing's sarcoma cell line, read-out: Hs822T inhibition of proliferation (IC50)
JNK2 = molecular target: T8, JNK2 (Homo sapiens, UniProt P45984); experiment: Z'-Lyte kinase assay (Life Technologies), JNK2; format: biochemical
T8 construct: purchased Life Technologies (assay service)
T8 sequence (P45984 whole entry): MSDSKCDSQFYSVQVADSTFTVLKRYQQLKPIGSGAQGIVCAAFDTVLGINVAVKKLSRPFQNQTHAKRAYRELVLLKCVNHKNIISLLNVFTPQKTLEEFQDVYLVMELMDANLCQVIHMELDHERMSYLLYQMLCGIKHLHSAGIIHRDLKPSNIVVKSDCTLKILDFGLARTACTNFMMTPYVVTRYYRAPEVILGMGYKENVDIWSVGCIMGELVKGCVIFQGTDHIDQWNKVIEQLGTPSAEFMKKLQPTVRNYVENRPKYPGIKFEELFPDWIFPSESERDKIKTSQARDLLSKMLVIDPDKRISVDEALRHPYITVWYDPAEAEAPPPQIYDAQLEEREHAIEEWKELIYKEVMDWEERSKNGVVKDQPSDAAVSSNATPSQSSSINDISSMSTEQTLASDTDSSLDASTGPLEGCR

hTERT-HME1 = experiment: Cell proliferation (CellTiter-Glo, 72 hour), hTERT-HME1; format: cell-based; conditions: breast cancer cell lines table, read-out: hTERT-HME1 inhibition of proliferation (IC50)
MDA-MB231 = experiment: Cell proliferation (CellTiter-Glo, 72 hour), MDA-MB231; format: cell-based; conditions: Homo sapiens, MDA-MB-231, breast cancer cell line, read-out: MDA-MB231 inhibition of proliferation (IC50)
SK-ES-1 = experiment: Cell proliferation (CellTiter-Glo, 72 hour), SK-ES-1; format: cell-based; conditions: Homo sapiens, SK-ES1, Ewing's sarcoma cell line, read-out: SK-ES-1 inhibition of proliferation (IC50)
SKBR3 = experiment: Cell proliferation (CellTiter-Glo, 72 hour), SKBR3; format: cell-based; conditions: Homo sapiens, SK-BR-3, breast cancer cell line, read-out: SKBR3 inhibition of proliferation (IC50)

SMILES: CN(C)C/C=C/C(=O)Nc1ccc(C(=O)N[C@H]2CCC[C@@H](Nc3ncc(Cl)c(-c4c[nH]c5ccccc45)n3)C2)cc1 [Compound 102, N-((1S,3R)-3-(5-chloro-4-(1H-indol-3-yl)pyrimidin-2-ylamino)cyclohexyl)-4-((E)-4-(dimethylamino)but-2-enamido)benzamide]
- IC50 (SAOS): < 500 nM
- IC50 (CDK5/p25): > 1000 nM
- inhibition at 0.1 µM (CDK5/p25; read-out: CDK5^a,c percent inhibition): < 50%
- inhibition at 1 µM (CDK5/p25; read-out: CDK5^b,c percent inhibition): < 50%
- IC50 (MLK3; Table 2, read-out: MLK3 (calculated IC50)): > 1000 nM
- inhibition at 0.1 µM (MLK3; compound tested at 100 nM, read-out: MLK3^a percent inhibition): < 50%
- IC50 (MNNG-HOS Cl #5): > 5 µM
- inhibition at 0.1 µM (CDK9/cyclin T1; read-out: CDK9^a,e percent inhibition): < 50%
- inhibition at 1 µM (CDK9/cyclin T1; read-out: CDK9^b,e percent inhibition): < 50%
- IC50 (CDK7; Table 1C, co-factors cyclin H and MNAT1, read-out: CDK7 IC50): < 100 nM
- IC50 (CDK7; Table 2, co-factors cyclin H and MNAT1, read-out: CDK7 (calculated IC50)): < 100 nM
- IC50 (Hs863T): > 5 µM
- IC50 (MCF7): > 5 µM
- inhibition at 0.1 µM (IRAK1; compound tested at 100 nM, read-out: IRAK1^a percent inhibition): < 50%
- inhibition at 1 µM (IRAK1; compound tested at 1 μM, read-out: IRAK1^b percent inhibition): < 50%
- inhibition at 0.1 µM (CDK1; compound tested at 100 nM, read-out: CDK1^a percent inhibition): < 50%
- inhibition at 1 µM (CDK1; compound tested at 1 μM, read-out: CDK1^b percent inhibition): < 50%
- IC50 (Jurkat cells): < 500 nM
- IC50 (MCF10A): < 500 nM
- inhibition at 0.1 µM (JNK1; compound tested at 100 nM, read-out: JNK1^a percent inhibition): < 50%
- inhibition at 1 µM (JNK1; compound tested at 1 μM, read-out: JNK1^b percent inhibition): 50 to 70%
- IC50 (T47D): > 5 µM
- IC50 (MV4-11): < 500 nM
- inhibition at 0.1 µM (CDK8; compound tested at 100 nM, read-out: CDK8^a percent inhibition): < 50%
- inhibition at 1 µM (CDK8; compound tested at 1 μM, read-out: CDK8^b percent inhibition): < 50%
- IC50 (A673): < 500 nM
- IC50 (RD-ES): < 500 nM
- inhibition at 0.1 µM (CDK5/p35; read-out: CDK5^a,d percent inhibition): < 50%
- inhibition at 1 µM (CDK5/p35; read-out: CDK5^b,d percent inhibition): < 50%
- IC50 (RS4-11): < 500 nM
- IC50 (THP-1): < 500 nM
- inhibition at 0.1 µM (CDK2; compound tested at 100 nM, read-out: CDK2^a percent inhibition): < 50%
- inhibition at 1 µM (CDK2; compound tested at 1 μM, read-out: CDK2^b percent inhibition): < 50%
- IC50 (HL60): < 500 nM
- IC50 (143B): > 5 µM
- IC50 (Hs822T): > 5 µM
- inhibition at 0.1 µM (JNK2; compound tested at 100 nM, read-out: JNK2^a percent inhibition): < 50%
- inhibition at 1 µM (JNK2; compound tested at 1 μM, read-out: JNK2^b percent inhibition): 50 to 70%
- IC50 (hTERT-HME1): < 500 nM
- IC50 (MDA-MB231): < 500 nM
- IC50 (SK-ES-1): < 500 nM
- IC50 (SKBR3): > 5000 nM

SMILES: CN1CC[C@H](c2c(O)cc(O)c3c(=O)cc(-c4ccccc4Cl)oc23)[C@H](O)C1 [Flavopiridol, flavopiridol, reference compound]
- IC50 (SAOS): < 500 nM
- IC50 (MNNG-HOS Cl #5): 0.5 to 5 µM
- IC50 (Hs863T): > 5 µM
- IC50 (MCF7): 0.5 to 5 µM
- IC50 (MCF10A): < 500 nM
- IC50 (T47D): > 5 µM
- IC50 (MV4-11): < 500 nM
- IC50 (A673): < 500 nM
- IC50 (RD-ES): < 500 nM
- IC50 (RS4-11): < 500 nM
- IC50 (THP-1): < 500 nM
- IC50 (HL60): < 500 nM
- IC50 (143B): 0.5 to 5 µM
- IC50 (Hs822T): > 5 µM
- IC50 (hTERT-HME1): < 500 nM
- IC50 (MDA-MB231): < 500 nM
- IC50 (SK-ES-1): < 500 nM
- IC50 (SKBR3): < 500 nM
